Results taken from patent US20260042755A1, “GPR6 INVERSE AGONISTS” (MapLight Therapeutics, Inc., priority 2022, published 2026).
pIC50: −log10 of the molar value.

Tests used:
GPR3 = target: T1, GPR3 (Homo sapiens, UniProt P46089); assay: GPR3 antagonist functional cAMP assay (LANCE Ultra cAMP TR-FRET, CHO cells stably expressing GPR3); type: cell-based; details: CHO cells stably expressing GPR3, cAMP assay (Example 24)
T1 construct: expressed in transfected cells; host or cells: CHO cells
In short: (§1)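 Stable CHO-GPR6 or CHO-GPR3 cells (10,000/well) in Krebs-Ringer buffer with 0.1% BSA and 150 μM Ro 20-1724 were exposed to compounds for 45 min at 37° C (0.1% DMSO). cAMP read by LANCE Ultra TR-FRET; IC50 from 4-parameter fit normalized to DMSO and reference compounds.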

GPR6 = target: T2, GPR6 (Homo sapiens, UniProt P46095); assay: GPR6 antagonist functional cAMP assay (LANCE Ultra cAMP TR-FRET, CHO cells stably expressing GPR6); type: cell-based; details: CHO cells stably expressing GPR6, cAMP assay (Example 24)
T2 construct: expressed in transfected cells; host or cells: CHO cells
T2 sequence (P46095 whole entry): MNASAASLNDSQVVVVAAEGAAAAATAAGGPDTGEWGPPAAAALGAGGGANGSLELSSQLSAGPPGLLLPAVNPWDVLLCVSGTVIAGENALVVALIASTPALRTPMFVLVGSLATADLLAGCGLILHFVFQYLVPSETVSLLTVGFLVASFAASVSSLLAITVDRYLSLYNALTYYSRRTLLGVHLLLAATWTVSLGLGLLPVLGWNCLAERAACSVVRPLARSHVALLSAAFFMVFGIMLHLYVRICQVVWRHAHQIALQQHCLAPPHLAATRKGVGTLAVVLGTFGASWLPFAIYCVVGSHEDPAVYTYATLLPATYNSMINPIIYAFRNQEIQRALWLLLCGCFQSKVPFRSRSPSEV
In short: as §1

T1 sequence (P46089 whole entry, species assumed): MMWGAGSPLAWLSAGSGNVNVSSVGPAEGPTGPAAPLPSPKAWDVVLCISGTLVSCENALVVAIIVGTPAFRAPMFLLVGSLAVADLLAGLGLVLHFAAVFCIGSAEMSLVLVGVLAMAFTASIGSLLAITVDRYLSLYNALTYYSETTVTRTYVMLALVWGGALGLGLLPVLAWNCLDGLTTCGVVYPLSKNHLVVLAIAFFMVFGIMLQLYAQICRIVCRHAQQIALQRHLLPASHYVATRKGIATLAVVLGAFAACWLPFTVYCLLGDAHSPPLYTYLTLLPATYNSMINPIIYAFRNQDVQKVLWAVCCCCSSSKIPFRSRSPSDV

pIC50 (GPR3)	pIC50 (GPR6)	SMILES
4.52 to 6.00	6.00 to 7.00	COCC(O)c1cc2nc(N3CCC(Oc4ccc(F)cc4F)CC3)c(-c3cnn(C)c3)nc2cn1 (stereo not shown) [Compound 437, 1-(2-(4-(2,4-difluorophenoxy)piperidin-1-yl)-3-(1-methyl-1H-pyrazol-4-yl)pyrido[3,4-b]pyrazin-7-yl)-2-methoxyethan-1-ol]
4.52 to 6.00	6.00 to 7.00	COC(CO)c1cc2nc(N3CCC(Oc4ccc(F)cc4F)CC3)c(-c3cnn(C)c3)nc2cn1 (stereo not shown) [Compound 438, 2-(2-(4-(2,4-difluorophenoxy)piperidin-1-yl)-3-(1-methyl-1H-pyrazol-4-yl)pyrido[3,4-b]pyrazin-7-yl)-2-methoxyethan-1-ol]
4.52 to 6.00	> 7.00	CC(=O)N1CCc2nc(N3CCC(Oc4ccc(F)cc4F)CC3)c(-c3cnn(CF)c3)nc2C1 [Compound 439, 1-{2-[4-(2,4-difluorophenoxy)piperidin-1-yl]-3-[1-(fluoromethyl)-1H-pyrazol-4-yl]-5H,6H,7H,8H-pyrido[3,4-b]pyrazin-6-yl}ethan-1-one]
4.52 to 6.00	4.52 to 6.00	CCn1cc(-c2nc3cnc(N)cc3nc2N2CCC(Oc3cc(Cl)ccc3Cl)CC2)cn1 [Compound 440, 2-[4-(2,5-dichlorophenoxy)piperidin-1-yl]-3-(1-ethyl-1H-pyrazol-4-yl)pyrido[3,4-b]pyrazin-7-amine]
4.52 to 6.00	6.00 to 7.00	CCn1cc(-c2nc3cnc(C(O)C(C)(C)O)cc3nc2N2CCC(Oc3cc(Cl)ccc3Cl)CC2)cn1 (stereo not shown) [Compound 441, 1-{2-[4-(2,5-dichlorophenoxy)piperidin-1-yl]-3-(1-ethyl-1H-pyrazol-4-yl)pyrido[3,4-b]pyrazin-7-yl}-2-methylpropane-1,2-diol]
4.52 to 6.00	4.52 to 6.00	CNC(CO)c1cc2nc(N3CCC(Oc4ccc(F)cc4F)CC3)c(-c3cnn(C)c3)nc2cn1 (stereo not shown) [Compound 442, 2-{2-[4-(2,4-difluorophenoxy)piperidin-1-yl]-3-(1-methyl-1H-pyrazol-4-yl)pyrido[3,4-b]pyrazin-7-yl}-2-(methylamino)ethan-1-ol]
4.52 to 6.00	4.52 to 6.00	Cn1cc(-c2nc3cnc(N)cc3nc2N2CCC(Oc3cc(Cl)ccc3Cl)CC2)cn1 [Compound 443, 2-[4-(2,5-dichlorophenoxy)piperidin-1-yl]-3-(1-methyl-1H-pyrazol-4-yl)pyrido[3,4-b]pyrazin-7-amine]
4.52 to 6.00	4.52 to 6.00	CC(=O)N1CCc2nc(N3CCC(Oc4ccc(F)cc4F)CC3)c(-c3cncc(C)n3)nc2C1 [Compound 444, 1-{2-[4-(2,4-difluorophenoxy)piperidin-1-yl]-3-(6-methylpyrazin-2-yl)-5H,6H,7H,8H-pyrido[3,4-b]pyrazin-6-yl}ethan-1-one]
4.52 to 6.00	4.52 to 6.00	Cn1cc(-c2nc3cn(C)c(=O)cc3nc2N2CCC(Oc3ccc(F)cc3F)CC2)cn1 [Compound 447, 2-[4-(2,4-difluorophenoxy)piperidin-1-yl]-6-methyl-3-(1-methyl-1H-pyrazol-4-yl)-6H,7H-pyrido[3,4-b]pyrazin-7-one]
4.52 to 6.00	6.00 to 7.00	CCn1ccc(-c2nc3c(nc2N2CCC(Oc4ccc(F)cc4F)CC2)CCN(C(C)=O)C3)n1 [Compound 448, 1-{2-[4-(2,4-difluorophenoxy)piperidin-1-yl]-3-(1-ethyl-1H-pyrazol-3-yl)-5H,6H,7H,8H-pyrido[3,4-b]pyrazin-6-yl}ethan-1-one]
4.52 to 6.00	4.52 to 6.00	Cn1cc(-c2nc3cnc(N4CCOCC4)cc3nc2N2CCC(Oc3ccc(F)cc3F)CC2)cn1 [Compound 449, 4-{2-[4-(2,4-difluorophenoxy)piperidin-1-yl]-3-(1-methyl-1H-pyrazol-4-yl)pyrido[3,4-b]pyrazin-7-yl}morpholine]
4.52 to 6.00	4.52 to 6.00	COC1CN(c2cc3nc(N4CCC(Oc5ccc(F)cc5F)CC4)c(-c4cnn(C)c4)nc3cn2)C1 [Compound 450, 4-(2,4-difluorophenoxy)-1-[7-(3-methoxyazetidin-1-yl)-3-(1-methyl-1H-pyrazol-4-yl)pyrido[3,4-b]pyrazin-2-yl]piperidine]
4.52 to 6.00	≤ 4.52	CC(=O)N1CCc2nc(N3CC=CC3)c(-c3cnn(C)c3)nc2C1 [Compound 451, 1-[2-(2,5-dihydro-1H-pyrrol-1-yl)-3-(1-methyl-1H-pyrazol-4-yl)-5H,6H,7H,8H-pyrido[3,4-b]pyrazin-6-yl]ethan-1-one]
4.52 to 6.00	6.00 to 7.00	COc1ccc(OC2CCN(c3nc4c(nc3-c3cnn(C)c3)CN(C(C)=O)CC4)CC2)c(F)c1 [Compound 452, 1-{2-[4-(2-fluoro-4-methoxyphenoxy)piperidin-1-yl]-3-(1-methyl-1H-pyrazol-4-yl)-5H,6H,7H,8H-pyrido[3,4-b]pyrazin-6-yl}ethan-1-one]
4.52 to 6.00	4.52 to 6.00	CC(=O)N1CCc2nc(N3CCC(Oc4ccc(F)c(F)c4)CC3)c(-c3cnn(C)c3)nc2C1 [Compound 453, 1-{2-[4-(3,4-difluorophenoxy)piperidin-1-yl]-3-(1-methyl-1H-pyrazol-4-yl)-5H,6H,7H,8H-pyrido[3,4-b]pyrazin-6-yl}ethan-1-one]
4.52 to 6.00	4.52 to 6.00	CC(=O)N1CCc2nc(N3CCC(Oc4c(F)cccc4F)CC3)c(-c3cnn(C)c3)nc2C1 [Compound 454, 1-{2-[4-(2,6-difluorophenoxy)piperidin-1-yl]-3-(1-methyl-1H-pyrazol-4-yl)-5H,6H,7H,8H-pyrido[3,4-b]pyrazin-6-yl}ethan-1-one]
4.52 to 6.00	4.52 to 6.00	CC(=O)N1CCc2nc(N3CCC(Oc4c(F)ccc(F)c4F)CC3)c(-c3cnn(C)c3)nc2C1 [Compound 455, 1-[3-(1-methyl-1H-pyrazol-4-yl)-2-[4-(2,3,6-trifluorophenoxy)piperidin-1-yl]-5H,6H,7H,8H-pyrido[3,4-b]pyrazin-6-yl]ethan-1-one]
4.52 to 6.00	6.00 to 7.00	CC(=O)N1CCc2nc(N3CCC(Oc4ccc(Cl)cc4F)CC3)c(-c3cnn(C)c3)nc2C1 [Compound 456, 1-{2-[4-(4-chloro-2-fluorophenoxy)piperidin-1-yl]-3-(1-methyl-1H-pyrazol-4-yl)-5H,6H,7H,8H-pyrido[3,4-b]pyrazin-6-yl}ethan-1-one]
4.52 to 6.00	6.00 to 7.00	CC(=O)N1CCc2nc(N3CCC(Oc4cc(Cl)ccc4F)CC3)c(-c3cnn(C)c3)nc2C1 [Compound 457, 1-{2-[4-(5-chloro-2-fluorophenoxy)piperidin-1-yl]-3-(1-methyl-1H-pyrazol-4-yl)-5H,6H,7H,8H-pyrido[3,4-b]pyrazin-6-yl}ethan-1-one]
4.52 to 6.00	6.00 to 7.00	CC(=O)N1CCc2nc(N3CCC(Oc4cc(Cl)c(F)cc4F)CC3)c(-c3cnn(C)c3)nc2C1 [Compound 458, 1-{2-[4-(5-chloro-2,4-difluorophenoxy)piperidin-1-yl]-3-(1-methyl-1H-pyrazol-4-yl)-5H,6H,7H,8H-pyrido[3,4-b]pyrazin-6-yl}ethan-1-one]
4.52 to 6.00	6.00 to 7.00	Cn1cc(-c2nc3cncc(N)c3nc2N2CCC(Oc3ccc(F)cc3F)CC2)cn1 [Compound 459, 2-[4-(2,4-difluorophenoxy)piperidin-1-yl]-3-(1-methyl-1H-pyrazol-4-yl)pyrido[3,4-b]pyrazin-8-amine]
4.52 to 6.00	6.00 to 7.00	Nc1cc2nc(N3CCC(Oc4ccc(F)cc4F)CC3)c(-c3cnn(C(F)F)c3)nc2cn1 [Compound 460, 3-[1-(difluoromethyl)-1H-pyrazol-4-yl]-2-[4-(2,4-difluorophenoxy)piperidin-1-yl]pyrido[3,4-b]pyrazin-7-amine]
4.52 to 6.00	6.00 to 7.00	Cn1cc(-c2nc3cnc(CC(C)(C)O)cc3nc2N2CCC(Oc3ccc(F)cc3F)CC2)cn1 [Compound 461, 1-(2-(4-(2,4-difluorophenoxy)piperidin-1-yl)-3-(1-methyl-1H-pyrazol-4-yl)pyrido[3,4-b]pyrazin-7-yl)-2-methylpropan-2-ol]
4.52 to 6.00	6.00 to 7.00	Nc1cc2nc(N3CCC(Oc4ccc(F)cc4F)CC3)c(-c3cnn(C4CC4)c3)nc2cn1 [Compound 462, 3-(1-cyclopropyl-1H-pyrazol-4-yl)-2-[4-(2,4-difluorophenoxy)piperidin-1-yl]pyrido[3,4-b]pyrazin-7-amine]
4.52 to 6.00	6.00 to 7.00	COCC1CC1c1nc2c(nc1N1CCC(Oc3ccc(F)cc3F)CC1)CCN(C(C)=O)C2 (stereo not shown) [Compound 463, 1-(2-(4-(2,4-difluorophenoxy)piperidin-1-yl)-3-(2-(methoxymethyl)cyclopropyl)-7,8-dihydropyrido[3,4-b]pyrazin-6(5H)-yl)ethan-1-one]
4.52 to 6.00	6.00 to 7.00	Cn1cc(-c2nc3cnc(C4CNC(=O)CO4)cc3nc2N2CCC(Oc3ccc(F)cc3F)CC2)cn1 (stereo not shown) [Compound 464, 6-(2-(4-(2,4-difluorophenoxy)piperidin-1-yl)-3-(1-methyl-1H-pyrazol-4-yl)pyrido[3,4-b]pyrazin-7-yl)morpholin-3-one]
4.52 to 6.00	6.00 to 7.00	CC(=O)N1CCc2nc(N3CCC(Oc4ccc(F)cc4F)CC3)c(-c3cncc(N)n3)nc2C1 [Compound 465, 1-[3-(6-aminopyrazin-2-yl)-2-[4-(2,4-difluorophenoxy)piperidin-1-yl]-5H,6H,7H,8H-pyrido[3,4-b]pyrazin-6-yl]ethan-1-one]
4.52 to 6.00	4.52 to 6.00	CC(=O)N1CCc2nc(N3CCC(Oc4ccc(F)cc4F)CC3)c(-c3ccnc(Cl)n3)nc2C1 [Compound 466, 1-[3-(2-chloropyrimidin-4-yl)-2-[4-(2,4-difluorophenoxy)piperidin-1-yl]-5H,6H,7H,8H-pyrido[3,4-b]pyrazin-6-yl]ethan-1-one]
4.52 to 6.00	4.52 to 6.00	CC(O)c1cc2nc(N3CCC(Oc4ccc(F)cc4F)CC3)c(-c3cnn(C)c3)nc2cn1 (stereo not shown) [Compound 467, 1-{2-[4-(2,4-difluorophenoxy)piperidin-1-yl]-3-(1-methyl-1H-pyrazol-4-yl)pyrido[3,4-b]pyrazin-7-yl}ethan-1-ol]
